These results are taken from patent US20060211747A1, “Methods of screening for compounds which inhibit the activity of Cdc34 in a zinc-mediated manner and compounds obtained by this method” (priority 2004, published 2006).

Like-named read-outs stand apart in the source and are kept apart here.

Broadly, the IC50 is the concentration at which inhibition is half-maximal.

Assay type in all cases: biochemical
For test [1], the target named is T1, UbcH10-Strep (SwissProt O00762) (Homo sapiens, UniProt O00762).
T1 construct: GST with Factor Xa cleavage site (N, cleaved yes); made in house; host or cells: baculovirus, High Five insect cells
T1 sequence (O00762 1-179): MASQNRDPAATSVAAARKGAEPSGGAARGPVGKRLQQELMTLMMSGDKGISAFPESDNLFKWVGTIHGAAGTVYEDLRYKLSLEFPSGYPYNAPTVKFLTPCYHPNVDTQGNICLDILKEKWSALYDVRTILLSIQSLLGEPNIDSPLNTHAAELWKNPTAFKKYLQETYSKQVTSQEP
As to the kind of experiment: UbcH10 thioester assay. The following applies: thioester formation; n=2. The text has this:
(§1) The assays measuring the formation of the thioester intermediate between ubiquitin and the ubiquitin conjugating enzymes Cdc34 (SwissProt P49427) UbcH5 (SwissProt P51668) and UbcH10 (SwissProt O00762) are described below.
(§2) UbcH5 and UbcH10 thioester assays: Here, we describe an assay, based on time resolved fluorescence, to monitor the formation of the thioester intermediate between ubiquitin and the ubiquitin-conjugating enzymes UbcH5, respectively UbcH10. […]

Test [2] concerns the target T2, UbcH5-Strep (SwissProt P51668) (Homo sapiens, UniProt P51668).
T2 construct: GST with Factor Xa cleavage site (N, cleaved yes); made in house; host or cells: baculovirus, High Five insect cells
As to the kind of experiment: UbcH5 thioester assay. The following applies: thioester formation; n=2.
From the text: as §1, §2

A further test addresses T3, Cdc34-FLAG (Homo sapiens, UniProt P49427).
T3 construct: GST with Factor Xa cleavage site (N, cleaved yes); made in house; host or cells: baculovirus, High Five insect cells
T3 sequence (P49427 1-236): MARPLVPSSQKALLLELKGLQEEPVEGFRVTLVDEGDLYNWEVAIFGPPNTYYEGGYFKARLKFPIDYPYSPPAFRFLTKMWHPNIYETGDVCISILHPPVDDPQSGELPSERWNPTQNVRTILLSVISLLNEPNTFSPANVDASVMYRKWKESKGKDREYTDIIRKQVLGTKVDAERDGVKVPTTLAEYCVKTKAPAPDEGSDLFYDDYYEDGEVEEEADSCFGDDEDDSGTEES
The test can be described thus: Cdc34 thioester assay in the presence of the chelating agents phenantroline or TSQ (zinc depletion / re-addition). The following applies: for IC50: read-out: Compound I IC50. As to the method:
(§3) Cdc34 thioester assay: Here, we describe an assay, based on time resolved fluorescence, to monitor the formation of the thioester intermediate between ubiquitin and the ubiquitin-conjugating enzyme Cdc34. The assay is aimed at screening for inhibitors of Cdc34 thioester formation and requires Eu-labelled ubiquitin (Eu—Ub), GST-E1 and Cdc34-FLAG. • Mix: In non-absorbing plates • 10 μl Test compound 5×conc. in 5% DMSO • 30 μl Cdc34-FLAG (20.8 nM) in 1×TEB (no ATP) • Incubate 10 min at RT • Add: 10 μl Eu—Ub (31.2 nM), GST-E1 (125 nM) in 1×TEB+ATP (Pre-incubated 10 min at RT). • Incubate 30 min at RT • Final Concentrations: Test compound 50/12.5/3.13/0.78/0.2/0.05 μM • Cdc34-FLAG 12.5 nM • Eu—Ub 6.25 nM • GST-E1 25 nM • Transfer: 45 μl To streptavidin coated plate containing 50 μl / well Superblock−TBS+1 mM NEM+100 nM biotinylated anti-FLAG antibody • Incubate 2 hours at RT • Wash 6×200 μl/well with 1× Wallac Wash Solution • Add 200 μl/well Wallac Enhancer Solution • Mix 5 min • Read • Positive Control: no test compound, 10 μl 5% DMSO • Negative Control: no Cdc34-FLAG, 30 μl 1×TEB (no ATP)
Cdc34 thioester assay in the presence of the chelating agents phenantroline or TSQ In order to deplete Cdc34 from zinc prior to measuring the inhibitory activity of the test compounds, the Cdc34 thioester assay described above was modified as follows. • Mix: In non-absorbing plates on ice • 10 μl Cdc34-FLAG (62.5 nM) in 1×TEB (no ATP) • 10 μl 5× Phenanthroline/5×TSQ/buffer • 10 μl 5×ZnCl2/buffer • Incubate 10 min on ice • Add: 10 μl Test compound 5×conc. in 5% DMSO • 10 μl Eu—Ub (31.2 nM), GST-E1 (125 nM) in 1×TEB+ATP (Pre-incubated 10 min at RT). • Incubate 30 min at RT • Phenanthroline (Sigma # P-9375) • TSQ (Molecular Probes # M-688)
(§4) The IC50 is defined as 50% inhibition of E2-ubiquitin thioester formation, estimated as the difference in fluorescence obtained in the presence or absence of E2 (Cdc34, UbcH5 or UbcH10).

Test [3] concerns the target T4, Cdc34-FLAG (ubiquitin conjugating enzyme Cdc34, SwissProt P49427) (Homo sapiens, UniProt P49427).
T4 construct: GST with Factor Xa cleavage site (N, cleaved yes); made in house; host or cells: baculovirus, High Five insect cells
T4 sequence (P49427 1-236): T3 sequence (P49427 1-236)
As to the kind of experiment: Cdc34 thioester assay (time resolved fluorescence). As to the method:
as §3, §4

T2 sequence (P51668 whole entry): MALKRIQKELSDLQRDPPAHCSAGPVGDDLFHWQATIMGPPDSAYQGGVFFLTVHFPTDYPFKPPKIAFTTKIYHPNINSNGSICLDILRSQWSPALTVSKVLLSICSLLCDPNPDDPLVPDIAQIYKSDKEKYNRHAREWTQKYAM

In the case of `CCCc1csc2nc(C(=O)n3nc(C)cc3C)cn12` [Compound V, (3,5-dimethyl-pyrazol-1-yl)-(3-propyl-imidazo[2,1-b]thiazol-6-yl)-methanone], the 50% inhibitory concentration (IC50) in test [1] and in test [2] was more than 50000 nM each time.
`c1cnc2c(c1)ccc1cccnc12` [phenathroline, 1,10-Phenanthroline, reference compound]: the “effect per se on the ability of Cdc34 to undergo thioester formation with ubiquitin” value on Cdc34-FLAG (FIG. 3) is reported as “does not affect per se”.
On to `Cc1cc(C)n(C(=O)c2cn3ccsc3n2)n1` [Compound II, (3,5-Dimethyl-pyrazol-1-yl)-imidazo[2,1-b]thiazol-6-yl-methanone], for which the IC50 in test [3] (read-out: IC50 values as determined in the Cdc34 thioester assays) was not above 1000 nM.
Consider `Cc1cc(C)n(C(=O)c2cn3c(C)csc3n2)n1` [Compound I, (3,5-dimethyl-pyrazol-1-yl)-(3-methyl-imidazo[2,1-b]thiazol-6-yl)-methanone], for which the IC50 is more than 50000 nM in test [1]; 390 nM in test [3] (thioester formation, mean of n=5, read-out: Cdc34-FLAG IC50); more than 50000 nM in test [2]; 740 nM at Cdc34-FLAG (1,10-Phenanthroline 0 μM, ZnCl2 0 nM); 550 nM at Cdc34-FLAG (1,10-Phenanthroline 0 μM, ZnCl2 100 nM); 360 nM on Cdc34-FLAG (1,10-Phenanthroline 0 μM, ZnCl2 200 nM). For the same compound, the IC50 is 1400 nM on Cdc34-FLAG (1,10-Phenanthroline 2 μM, ZnCl2 0 nM); 640 nM on Cdc34-FLAG (1,10-Phenanthroline 2 μM, ZnCl2 100 nM); 710 nM at Cdc34-FLAG (1,10-Phenanthroline 2 μM, ZnCl2 200 nM); 8800 nM on Cdc34-FLAG (1,10-Phenanthroline 10 μM, ZnCl2 0 nM); 4600 nM on Cdc34-FLAG (1,10-Phenanthroline 10 μM, ZnCl2 100 nM); 1380 nM on Cdc34-FLAG (1,10-Phenanthroline 10 μM, ZnCl2 200 nM). Besides, the IC50 at Cdc34-FLAG (TSQ 0 μM, ZnCl2 0 nM) was determined as 640 nM; on Cdc34-FLAG (TSQ 0 μM, ZnCl2 100 nM), 600 nM; on Cdc34-FLAG (TSQ 0 μM, ZnCl2 200 nM), 700 nM; at Cdc34-FLAG (TSQ 2 μM, ZnCl2 0 nM) it was 4200 nM; on Cdc34-FLAG (TSQ 2 μM, ZnCl2 100 nM), 950 nM; at Cdc34-FLAG (TSQ 2 μM, ZnCl2 200 nM) it was 1300 nM. For the same compound, the IC50 at Cdc34-FLAG (TSQ 10 μM, ZnCl2 0 nM) was 10600 nM; on Cdc34-FLAG (TSQ 10 μM, ZnCl2 100 nM), 3300 nM; on Cdc34-FLAG (TSQ 10 μM, ZnCl2 200 nM), 600 nM. Besides, the “inhibitory activity on Cdc34 thioester formation” value at Cdc34-FLAG (Cdc34 pretreated with 50 μM phenanthroline (FIG. 3)) was “completely abolished”. In addition, the “effect of phenantroline on inhibitory activity of the compounds” value on Cdc34-FLAG (compound added to Cdc34 before phenantroline (data not shown)) is on record as “failed to abolish the inhibitory activity”.
